This is an account of results in US8703951B2, “Synthesis of 4H-benzo[D]pyrrolo[1,2-A]thiazoles and indolizino[6,7-b]indole derivatives and their use as antitumor therapeutic agents” (Academia Sinica, priority 2011, dated 2014).

Like-named read-outs stand apart in the source and are kept apart here.

In series [1] the test system is human large cell lung carcinoma H460 xenograft. The following applies: combination with arsenic trioxide (ATO); background; cited from earlier work.
Series [2] relates to cisplatin-resistant NTUB 1/P human bladder carcinoma xenografts. The following applies: combination with arsenic trioxide (ATO); background; cited from earlier work.
Series [3] has as its system human lymphoblastic leukemia (CCRF-CEM). Kind of series: In vitro cytotoxicity, XTT assay, CCRF-CEM. The format is cell-based. The source says:
(§1) Human colon carcinoma HCT-116 cells and human prostate adenocarcinoma PC-3 cells were obtained from American Type Culture Collection (ATCC, Rockville, Md.). Human mammary carcinoma (MX-1) tumor cells were obtained from MSKCC cell bank. The CCRF-CEM human lymphoblastic leukemia cells and their vinblastine resistant subline (CCRF-CEM/VBL, 680-fold resistance in vitro) were obtained from Dr. William Beck of the University of Illinois, Chicago, and CCRF-CEM/Taxol (330-fold resistance in vitro). Resistant cells CCRF-CEM/taxol were produced by exposing the parent cells to increasing sublethal concentration (IC50-IC90) of paclitaxel for six months.
(§2) In preparation for in vitro cytotoxicity assays, cells were cultured at an initial density 2−5×10^4 cells per milliliter. They were maintained in a 5% CO2-humidified atmosphere at 37° C. in RPMI medium 1640 (GIBCO/BRL) containing penicillin (100 units/mL), streptomycin (100 μg/mL, GIBCO/BRL), and 5% heat-inactivated FBS. For cells grown in suspension (such as CCRF-CEM and its sublines), cytotoxicity was measured, by using XTT microculture method^23 in 96-well microtiter plates.
(§3) The cytotoxic effects of the newly synthesized compounds were determined in T-cell acute lymphocytic leukemia (CCRF-CEM) and their resistant subcell lines (CCRF-CEM/Taxol and CCRF-CEM/VBL) by the XTT assay^24 and human solid tumor cells (i.e. breast carcinoma MX-1 and colon carcinoma HCT-116) by the SRB assay^25 in a 72 h incubation using a microplate spectrophotometer as described previously.^25 After the addition of phenazine methosulfate-XTT solution, incubated at 37° C. for 6 h and absorbance at 450 and 630 nm was detected on a microplate reader (EL 340). The cytotoxicity of the newly synthesized compounds against non-small cell lung carcinoma H1299, prostate cancer PC3, oral cancer OECM-1 and glioma U87 were determined by the Alamar blue assay^26 in a 72 h incubation using a microplate spectrophotometer as described previously. After the addition of alamar blue solution, it was incubated at 37° C. for 6 h. Absorbance at 570 and 600 nm was detected on a microplate reader. IC50 values were determined from dose-effect relationship at six or seven concentrations of each drug using the CompuSyn software by Chou and Martin^27 based on the median-effect principle and plot.^28,29 Ranges given for Cisplatin were mean±SE (n=4).

The next series has as its system CCRF-CEM/Taxol. Kind of series: In vitro cytotoxicity, XTT assay, CCRF-CEM/Taxol. The following applies: Table 5; for IC50: Taxol-resistant subline, XTT, 72 h, read-out: Cell Growth inhibition (IC50 μM) CCRF-CEM/Taxol; for fold of cross-resistant vs IC50 of the parent cell line, CCRF-CEM/Taxol: number in brackets. The format is cell-based, human.
From the text: as §1, §2, §3

The next series concerns CCRF-CEM/VBL. Kind of series: In vitro cytotoxicity, XTT assay, CCRF-CEM/VBL. The following applies: Table 5; for fold of cross-resistant vs IC50 of the parent cell line, CCRF-CEM/VBL: number in brackets; for IC50: vinblastine-resistant subline, XTT, 72 h, read-out: Cell Growth inhibition (IC50 μM) CCRF-CEM/VBL. The format is cell-based, human.
From the text: as §1, §2, §3

For another series, the system named is breast carcinoma MX-1. The series can be described thus: In vitro cytotoxicity, SRB assay, MX-1. The format is cell-based, human. The following applies: Table 6, 72 h.
From the text: as §1, §2, §3

The test system of the next series is colon carcinoma HCT-116. Kind of series: In vitro cytotoxicity, SRB assay, HCT-116. The following applies: Table 6, 72 h. The format is cell-based, human.
From the text: as §1, §2, §3

Series [4] has as its system non-small cell lung carcinoma H1299. The series can be described thus: In vitro cytotoxicity, Alamar blue assay, H1299. The format is cell-based, human. As to the method:
(§4) Prostate cancer PC3, non-small cell lung carcinoma cells H1299, and human glioma cells U87 were purchased from the American Type Culture Collection (Rockville, Md.). OECM-1 (human gingival squamous cell carcinoma cells) was obtained from Dr C.-L. Meng (National Defense Medical College, Taiwan).^22
as §2, §3

Another series relates to prostate cancer PC3. Kind of series: In vitro cytotoxicity, Alamar blue assay, PC3. The format is cell-based, human. Here is the method:
as §4, §2, §3

The next series deals with oral cancer OECM-1. Kind of series: In vitro cytotoxicity, Alamar blue assay, OECM-1. The format is cell-based, human. As to the method:
as §4, §2, §3

The next series concerns glioma U87. The series can be described thus: In vitro cytotoxicity, Alamar blue assay, U87. The format is cell-based, human. Here is the method:
as §4, §2, §3

The next series deals with linearized pBR322DNA. The series can be described thus: DNA cross-linking, alkaline agarose gel shift assay. The following applies: 1, 10, and 20 μM; FIG. 8. The format is biochemical. As to the method:
Formation of DNA cross-linking was analyzed by alkaline agarose gel electrophoresis assay. […] The reaction mixture was incubated at 37° C. for 2 h. At the end of reaction, the plasmid DNA was linearized by digestion with BamHI and followed by precipitation with ethanol. The DNA pellets were dissolved and denatured in alkaline buffer (0.5 N NaOH-10 mM EDTA). An aliquot of 20 μL of DNA solution (1000 ng) was mixed with 4 μL of 6× alkaline loading dye and then electrophoretically resolved on a 0.8% alkaline agarose gel with NaOH-EDTA buffer at 4° C. The electrophoresis was carried out at 18 V for 22 h. After staining the gels with an ethidium bromide solution, the DNA was then visualized under UV light.

The test system of series [5] is MX-1 human mammary xenograft. Kind of series: Therapeutic efficacy in nude mice bearing MX-1 xenograft. The format is in vivo. The following applies: for complete tumor remission (CR): FIG. 6, i.v. inj., n=4. Here is the method:
Athymic nude mice bearing the nu/nu gene were obtained from NCI, Frederick, Md. and used for all human tumor xenografts. Male nude mice, 6 weeks or older, weighing 20-24 g or more were used. Compounds were administered via the tail vein for i.v. injection or infusion as described previously.^26 A typical formulation for chemotherapeutic studies for each drug was dissolved in DSMO to make a 25 mg/ml fresh solution, 0.4 ml of this solution was mixed with 0.3 ml of Tween 80, plus 1.3 ml to make 2 ml of 5 mg/ml solution. Bolus injection volume was 0.1-0.2 ml per mouse. Tumor volume was assessed by measuring length×width×height (or width) by using a caliper. For tumor-bearing nude mice during the course of the experiment, the body weight refers to total weight minus the weight of the tumor. All animal studies were conducted in accordance with the guidelines for the National Institute of Health Guide for the Care and Use of Animals and the protocol approved by the Institutional Animal Care and Use Committee.

Where [6] appears, read: Table 5, 72 h incubation, read-out: Cell Growth inhibition (IC50 μM) CCRF-CEM.

`CNC(=O)OCc1c(COC(=O)NC)c(-c2ccc(OC)cc2)n2c1Cc1ccccc1-2` [BO-1012]: the tumor suppression entry in series [1] is recorded as “more than 82%”; in [2] it was more than 92%.
Regarding `CCNC(=O)OCc1c(COC(=O)NCC)c2sc3ccccc3n2c1-c1ccc(Cl)cc1` [Compound 19c, (1-(4-Chlorophenyl)benzo[d]pyrrolo[2,1-b]thiazole-2,3-diyl)bis(methylene)bis(ethylcarbamate)], the IC50 in series [3] (setting [6]) amounted to 0.21 ± 0.01 µM; with CCRF-CEM/Taxol, 0.32 ± 0.003 µM; in the series on CCRF-CEM/VBL, 0.39 ± 0.012 µM; in the series with breast carcinoma MX-1, 0.91 ± 0.01 µM; with colon carcinoma HCT-116, 0.7 ± 0.008 µM; in [4] (Table 6, 72 h) it was 4.33 ± 0.45 µM. Besides, the IC50 is 13.8 ± 3.78 µM with prostate cancer PC3 (Table 6, 72 h); 11.6 ± 2.84 µM in the series with oral cancer OECM-1 (Table 6, 72 h); 26 ± 2.27 µM in the series on glioma U87 (Table 6, 72 h). The “fold of cross-resistant vs IC50 of the parent cell line, CCRF-CEM/Taxol” value (from here on “fold of cross-resistant vs IC50 … CCRF-CEM/Taxol”) in the series with CCRF-CEM/Taxol is recorded as 1.52 ×. The “fold of cross-resistant vs IC50 of the parent cell line, CCRF-CEM/VBL” value (shortened to “fold of cross-resistant vs IC50 … CCRF-CEM/VBL”) with CCRF-CEM/VBL was found to be 1.85 ×. The DNA interstrand cross-linking result with linearized pBR322DNA is recorded as “able to bind covalently (interstrand cross-linking) with DNA”.
Turning to `CC(C)NC(=O)OCc1c(-c2ccc(F)cc2)c2sc3ccccc3n2c1COC(=O)NC(C)C` [Compound 20b, (1-(4-Fluorophenyl)benzo[d]pyrrolo[2,1-b]thiazole-2,3-diyl)bis(methylene)bis(iso-propylcarbamate)], the IC50 in series [3] (setting [6]) was 0.05 ± 0.001 µM; with CCRF-CEM/Taxol it was 0.16 ± 0.007 µM; with CCRF-CEM/VBL it was 0.19 ± 0.003 µM; in the series on breast carcinoma MX-1, 0.62 ± 0.014 µM; with colon carcinoma HCT-116 it was 0.35 ± 0.01 µM; in [4] (Table 6, 72 h), 33 ± 3.2 µM. The IC50 amounted to 24.2 ± 4.17 µM in the series on prostate cancer PC3 (Table 6, 72 h); 11.9 ± 2.9 µM with oral cancer OECM-1 (Table 6, 72 h); 53.5 ± 9.97 µM in the series with glioma U87 (Table 6, 72 h). For the same compound, the “fold of cross-resistant vs IC50 … CCRF-CEM/Taxol” value in the series with CCRF-CEM/Taxol is listed as 3.20 ×. In addition, in the series with CCRF-CEM/VBL, the “fold of cross-resistant vs IC50 … CCRF-CEM/VBL” value is listed as 3.80 ×. For the same compound, the “complete tumor remission (CR), mice” value in [5] (20 mg/kg, Q2Dx3 and then 25 mg/kg, Q2D×4, iv. inj., on D26 and 28) was “two out of three”.
As to `CC(C)NC(=O)OCc1c(COC(=O)NC(C)C)c2sc3ccccc3n2c1-c1ccc(Cl)cc1` [Compound 20c, (1-(4-Chlorophenyl)benzo[d]pyrrolo[2,1-b]thiazole-2,3-diyl)bis(methylene)bis(iso-propylcarbamate)], the IC50 in [3] (setting [6]) amounted to 0.08 ± 0.0003 µM; in the series on CCRF-CEM/Taxol, 0.39 ± 0.004 µM; in the series with CCRF-CEM/VBL, 0.42 ± 0.001 µM; in the series with breast carcinoma MX-1, 1.19 ± 0.004 µM; in the series with colon carcinoma HCT-116 it was 1.7 ± 0.006 µM; in [4] (Table 6, 72 h), 8.75 ± 0.88 µM. Moreover, the IC50 in the series with prostate cancer PC3 (Table 6, 72 h) is 13.7 ± 1.28 µM; in the series on oral cancer OECM-1 (Table 6, 72 h) it was 7.54 ± 0.95 µM; in the series with glioma U87 (Table 6, 72 h) it was 29 ± 4.49 µM. Also, the “fold of cross-resistant vs IC50 … CCRF-CEM/Taxol” value with CCRF-CEM/Taxol was determined as 4.87 ×. In addition, in the series on CCRF-CEM/VBL, the “fold of cross-resistant vs IC50 … CCRF-CEM/VBL” value came out at 5.25 ×. The “complete tumor remission, mice” value in series [5] (20 mg/kg, Q2Dx3 and then 25 mg/kg, Q2Dx5, on D24, 26, and 26, FIG. 5A) is recorded as “all three”. The DNA interstrand cross-linking entry in the series on linearized pBR322DNA is “able to bind covalently (interstrand cross-linking) with DNA”.
As for `CC(C)NC(=O)OCc1c(COC(=O)NC(C)C)c2n(c1-c1ccc(F)cc1)CC(C)c1c-2[nH]c2ccccc12` (centres unmarked) [Compound 28c, [3-(4-Fluorophenyl)-6-methyl-6,11-dihydro-5H-indolizino[6,7-b]indole-1,2-diyl]bis(methylene) (isopropylcarbamate)], the IC50 in series [3] (Table 7, 72 h, read-out: IC50 (μM) CCRF/CEM) stood at 0.106 ± 0.004 µM; in series [4] (Table 7, 72 h) it was 16.9 ± 2.69 µM; in the series with oral cancer OECM-1 (Table 7, 72 h, read-out: IC50 (μM) OECM1) it was 6.56 ± 1.15 µM. In addition, the “complete tumor remission (CR)” value in [5] is listed as “CR was achieved”.
Turning to `CCn1c2c(c3ccccc31)Cc1c(CO)c(CO)c(C)n1C2` [Compound 33b, [6-Ethyl-3-methyl-6,11-dihydro-5H-indolizino[6,7-b]indole-1,2-diyl]dimethanol], the melting point lay within 216 to 217 °C. The IC50 in series [3] (Homo sapiens, CCRF-CEM, Table 7, 72 h, read-out: IC50 (μM) CCRF/CEM) stood at 0.1 ± 0.002 µM. The compound also had an IC50 in [4] (Homo sapiens, NCI-H1299, Table 7, 72 h) of 2.97 ± 0.55 µM. In the series with prostate cancer PC3 (Homo sapiens, Table 7, 72 h), the IC50 is 2.66 ± 0.47 µM. In the series with oral cancer OECM-1 (Homo sapiens, OECM1, Table 7, 72 h), this compound showed an IC50 of 1.17 ± 0.89 µM. The compound further displayed an IC50 in the series with glioma U87 (Homo sapiens, Table 7, 72 h) of 6.26 ± 1.43 µM. In addition, the “complete tumor remission (CR)” value in [5] is reported as “CR was achieved”.
